# Reference: ChEMBL document CHEMBL4177533, “Identification and Synthesis of Mycalol Analogues with Improved Potency against Anaplastic Thyroid Carcinoma Cell Lines” (J Nat Prod, 2017)
# How the values were obtained:
# [1] = Cytotoxicity against human FRO cells assessed as reduction in cell viability incubated for 72 hrs by Cell-titer 96 aqueous one assay; type: functional, cell-based
# [2] = Cytotoxicity against human FRO cells assessed as reduction in cell viability in presence of shHMGA1 incubated for 72 hrs by Cell-titer 96 aqueous one assay; type: functional, cell-based
# [3] = Cytotoxicity against human ACT1 cells assessed as reduction in cell viability incubated for 72 hrs by Cell-titer 96 aqueous one assay; type: functional, cell-based
# 8505C = assay: Cytotoxicity against human 8505C cells assessed as reduction in cell viability incubated for 72 hrs by Cell-titer 96 aqueous one assay; type: functional, cell-based
# [4] = Potency index, ratio of IC50 for mycalol to IC50 for test compound against human FRO cells assessed as reduction in cell viability incubated for 72 hrs by Cell-titer 96 aqueous one assay; type: functional
# [5] = Cytotoxicity against human FRTL5 cells assessed as reduction in cell viability incubated for 72 hrs by Cell-titer 96 aqueous one assay; type: cell-based; conditions: FRTL-5, 72 h
smiles,measurement,setting,value
CCCCCCC[C@H](CCCCCCCCCC[C@H](O)[C@H](O)CC[C@H](O)[C@H](O)CCOC[C@H](O)CO)OC(=O)C[C@H](C)O,IC50,[1],16 µM
CCCCCCC[C@H](CCCCCCCCCC[C@H](O)[C@H](O)CC[C@H](O)[C@H](O)CCOC[C@H](O)CO)OC(C)=O (stereo in doubt; form 1),IC50,[1],2.3 µM
same,IC50,"[2]; Homo sapiens, 72 h",3.3 µM
same,IC50,"[3]; Homo sapiens, 72 h",4.8 µM
same,IC50,"8505C; Homo sapiens, 8505C, 72 h",2.6 µM
same,Ratio IC50,[4],6
CCCCCCC[C@H](CCCCCCCCCC[C@H](O)[C@H](O)CC[C@H](O)[C@H](O)CCOC[C@H](O)CO)OC(C)=O (stereo in doubt; form 2),IC50,[2],3.4 µM
same,IC50,[3],5.1 µM
same,IC50,8505C; 8505c,2.1 µM
same,IC50,[5],> 40 µM
CCCCC[C@H](CCCCCCCCCC[C@H](O)[C@H](O)CC[C@H](O)[C@H](O)CCOC[C@H](O)CO)OC(C)=O,IC50,[1],16 µM
CCCCCCCCC[C@H](CCCCCCCCCC[C@H](O)[C@H](O)CC[C@H](O)[C@H](O)CCOC[C@H](O)CO)OC(=O)C[C@H](C)O,IC50,[1],4.7 µM
CCCCCCCC[C@H](CCCCCCCCCC[C@H](O)[C@H](O)CC[C@H](O)[C@H](O)CCOC[C@H](O)CO)OC(=O)C[C@H](C)O,IC50,[1],20 µM
